Measurements reported in patent publication US20230181542A1, “METHOD AND PHARMACEUTICAL COMPOSITION FOR TREATING CHRONIC KIDNEY DISEASE” (Chengdu WenDing Technology Development Co., Ltd., priority 2020, published 2023).
Where “and” joins values, the source holds several entries; their conditions need not be identical. Equal values may be shown once.

Legend:
[1] = marketed drug, known side effects; cited from earlier work
[2] = system: rhesus monkeys with spontaneous chronic diabetic kidney disease; test: Proteinuria (UACR, urinary Malb and Cr-U), 4 to 6 hour urine collection; type: in vivo, Macaca mulatta (Rhesus Macaque); details: for UACR: Valsartan group 2.67 mg/kg oral, individual animals and Mean ± SD (baseline 61 ± 33); for UACR change rate / UACR decreased by an average of (compared with the baseline) / Malb / Cr-U: Valsartan group; for UACR change rate: individual animals and Mean ± SD, negative = decrease; for Malb: individual animals and Mean ± SD (baseline 76.1 ± 114.7); for Cr-U: individual animals and Mean ± SD (baseline 90.9 ± 108.5)
Procedure: The details of the dosing regime of each group are described below, wherein the route of administration was oral administration. The baseline period was 1 month, followed by continuous oral administration for 58 days. […] Urinary albumin excretion rate (UACR): 4 h to 6 hours urine was collected and detected for urinary microalbumin (Malb) and urinary creatinine (Cr-U), followed by calculation of UACR value. Detection was performed one time before administration, and at designated times (such as once at D30 and once at […]) after administration. UACR=Malb/Cr-U. Urine sample collection method: Animals were fasted overnight before the operation of collecting urine. On the day of operation, animals were transferred to a metabolic cage, followed by collecting all urine excreted within 4 to 6 hours into a urine collection bag. Detection method: see Tables 3-2 and 3-3 Effects on urinary albumin excretion rate (UACR) are shown in FIG. 1, FIG. 2 and Table 4-1. […]

[3] = system: rhesus monkeys with spontaneous chronic diabetic kidney disease; test: Glomerular filtration rate eGFR calculated from Cr-P and CysC; type: in vivo, Macaca mulatta (Rhesus Macaque); details: for eGFR change value: animals with eGFR 30 to 59, DOX+PMP+MTP groups 1# and 2# combined n = 5, Valsartan n = 3, Mean ± SD; for eGFR: Valsartan group, Mean ± SD (baseline 50 ± 7)
Procedure: (§1) The details of the dosing regime of each group are described below, wherein the route of administration was oral administration. The baseline period was 1 month, followed by continuous oral administration for 58 days.
Glomerular filtration rate eGFR: creatinine (Cr-P), blood urea nitrogen (BUN), cystatin (CysC) were detected to calculate the eGFR value. Detections were performed once in the baseline period before administration, and at designated times (such as D14, D28, D45, and D58, etc.) after administration. In accordance with reference literature (Levey A S, Stevens L A, Schmid C H et al. A new equation to estimate glomerular filtration rate. Ann Intern Med 2009; 150:604-612), the formula for calculating eGFR was as follows: […]
Blood sample collection method: Before the blood collection operation, an animal was fasted overnight without anesthesia. After the animals were acclimatized, the backboard was gently squeezed to restrain the animal, and blood was collected through the forearm vein. After collection, sterilized dry cotton ball was used to gently press the blood collection site to stop bleeding.
Results of eGFR are shown in FIG. 3, Table 4-2 and Table 4-3. eGFR values of 30 to 59 ml/min/1.73m^2 were selected and included to analyze the changes of glomerular filtration rate.

[4] = system: rhesus monkeys with spontaneous chronic diabetic kidney disease; test: Blood pressure (SBP/DBP) after anesthesia; type: in vivo, Macaca mulatta (Rhesus Macaque); details: Valsartan group
Procedure: as §1
Blood pressure: blood pressure was detected after anesthesia, including systolic blood pressure (SBP), diastolic blood pressure (DBP), mean blood pressure (MBP) and heart rate (HR). Detection was carried out 1 time before administration and 1 time at D58 (end of administration).
Detection method: Animals were anesthetized by intramuscular injection of 15 mg/kg ketamine hydrochloride and then placed in a supine position, followed by being tied with a cuff of appropriate size according to the corresponding standard. A blood oxygen probe was clamped on a finger or toe (except the left hand) of the animal, with the red photosensitive surface on the side of the finger pad. The blood pressure of the animal was continuously detected 3 times in automatic mode with an interval of 1 minute. If the differences in the SBP, DBP and MBP of the three times were less than 15 mmHg, the measurement completed, otherwise the measurement repeated.
Detection indicators: systolic blood pressure (SBP), diastolic blood pressure (DBP), mean blood pressure (MBP) and heart rate (HR).
Instrument: GE B40i electrophysiological monitor.

[5] = system: rhesus monkeys with spontaneous chronic diabetic kidney disease; test: Renal function markers CysC, Cr-P and BUN in blood; type: in vivo, Macaca mulatta (Rhesus Macaque); details: Valsartan group; for CysC: Mean ± SD (baseline 1.57 ± 0.10)
Procedure: The details of the dosing regime of each group are described below, wherein the route of administration was oral administration. The baseline period was 1 month, followed by continuous oral administration for 58 days. Glomerular filtration rate eGFR: creatinine (Cr-P), blood urea nitrogen (BUN), cystatin (CysC) were detected to calculate the eGFR value. Detections were performed once in the baseline period before administration, and at designated times (such as D14, D28, […], and […], etc.) after administration. In accordance with reference literature (Levey A S, Stevens L A, Schmid C H et al. A new equation to estimate glomerular filtration rate. Ann Intern Med 2009; 150:604-612), the formula for calculating eGFR was as follows: Blood sample collection method: Before the blood collection operation, an animal was fasted overnight without anesthesia. After the animals were acclimatized, the backboard was gently squeezed to restrain the animal, and blood was collected through the forearm vein. After collection, sterilized dry cotton ball was used to gently press the blood collection site to stop bleeding. [table] CysC is an endogenous marker that reflects changes in glomerular filtration rate. Cr-P has been used as the main index of renal function for more than 40 years. In this test, glomerular filtration rate eGFR is calculate by measuring CysC and Cr-P. Although BUN was first used as an evaluation index of renal function, it could not meet the requirements of endogenous GFR markers and was only used as an auxiliary index in this test.

CCCN[C@H]1CCc2nc(N)sc2C1 [PMP, (S)-N6-propyl-4,5,6,7-tetrahydro-1,3-benzothiazole-2,6-diamine]
daily dose at which the incidence of somnolence increases [1]: above 1.5 mg

CCCCC(=O)N(Cc1ccc(-c2ccccc2-c2nnn[nH]2)cc1)[C@H](C(=O)O)C(C)C [Valsartan]
UACR ([2]; D 30): 59 mg/g and 84 mg/g and 20 mg/g and 21 mg/g and 46 ± 31 mg/g | UACR ([2]; D 58): 38 mg/g and 64 mg/g and 19 mg/g and 22 mg/g and 36 ± 20 mg/g | UACR change rate ([2]; Baseline-D 30): −27.11% and −14.25% and −33.78% and −42.53% and −29.41 ± 11.92% | UACR change rate ([2]; Baseline-D 58): −52.26% and −34.73% (2×) and −41.10% and −40.71 ± 8.27% | UACR decreased by an average of (compared with the baseline) ([2]; D30): about 30% | Malb ([2]; D 30): 51.3 mg/L and 199.8 mg/L and 13.4 mg/L and 5.9 mg/L and 67.6 ± 90.3 mg/L | Cr-U ([2]; D 30): 87.5 mg/dL and 238.1 mg/dL and 68.3 mg/dL and 27.5 mg/dL and 105.3 ± 92.0 mg/dL | Malb ([2]; D 58): 54.9 mg/L and 206.7 mg/L and 39.9 mg/L and 6.2 mg/L and 76.9 ± 88.9 mg/L | Cr-U ([2]; D 58): 143.0 mg/dL and 323.6 mg/dL and 206.3 mg/dL and 28.2 mg/dL and 175.3 ± 123.4 mg/dL | UACR decreased by an average of (compared with the baseline) ([2]; D58, p<0.01 vs placebo): 40.71±8.27% | eGFR change value ([3]; D 14 minus baseline): 3 ± 2 ml/min/1.73 m^2 | eGFR change value ([3]; D 28 minus baseline): 6 ± 7 ml/min/1.73 m^2 | eGFR change value ([3]; D 45 minus baseline): 5 ± 6 ml/min/1.73 m^2 | eGFR change value ([3]; D 58 minus baseline): 10±7 ml/min/1.73 m^2 | eGFR ([3]; D 14): 53 ± 7 ml/min/1.73 m^2 | eGFR ([3]; D 28): 56 ± 2 ml/min/1.73 m^2 | eGFR ([3]; D 45): 55 ± 1 ml/min/1.73 m^2 | eGFR ([3]; D 58): 60 ± 1 ml/min/1.73 m^2 | DBP ([4]; D 58, Mean ± SD (baseline 71 ± 15)): 63 ± 11 mmHg | SBP ([4]; D 58, Mean ± SD (baseline 135 ± 16)): 123 ± 12 mmHg | DBP decreased by an average of (compared with the baseline) ([4]; D58, p<0.01 vs placebo): 8±6 mmHg | SBP decreased by an average of (compared with the baseline) ([4]; D58, p<0.05 vs placebo): 13±6 mmHg | DBP change value ([4]; D 58 vs baseline, Mean ± SD): −8 ± 5 mmHg | SBP change value ([4]; D 58 vs baseline, Mean ± SD): −13 ± 6 mmHg | CR-P ([5]; D 14 (baseline 1.46 ± 0.29)): 1.26 ± 0.24 mg/dL | BUN ([5]; D 14 (baseline 41.9 ± 34.2)): 27.1 ± 6.0 mg/dL | CysC ([5]; D 14): 1.59 ± 0.10 mg/L | CR-P ([5]; D 28 (baseline 1.46 ± 0.29)): 1.18 ± 0.13 mg/dL | BUN ([5]; D 28 (baseline 41.9 ± 34.2)): 35.0 ± 16.6 mg/dL | CysC ([5]; D 28): 1.53 ± 0.08 mg/L | CR-P ([5]; D 45 (baseline 1.46 ± 0.29)): 1.18 ± 0.12 mg/dL | BUN ([5]; D 45 (baseline 41.9 ± 34.2)): 37.9 ± 19.2 mg/dL | CysC ([5]; D 45): 1.56 ± 0.09 mg/L | CR-P ([5]; D 58 (baseline 1.46 ± 0.29)): 1.10 ± 0.08 mg/dL | BUN ([5]; D 58 (baseline 41.9 ± 34.2)): 31.6 ± 11.3 mg/dL | CysC ([5]; D 58): 1.48 ± 0.11 mg/L
